Assay results from publication PMC6757289, “Design and Characterization of SGK3-PROTAC1, an Isoform Specific SGK3 Kinase PROTAC Degrader” (ACS Chemical Biology, 2019).
pIC50: −log10 of the molar value.

Molecular target: T1, SGK1 (Homo sapiens, UniProt O00141, S422D)
T1 sequence (O00141 60-431 S422D limits assumed): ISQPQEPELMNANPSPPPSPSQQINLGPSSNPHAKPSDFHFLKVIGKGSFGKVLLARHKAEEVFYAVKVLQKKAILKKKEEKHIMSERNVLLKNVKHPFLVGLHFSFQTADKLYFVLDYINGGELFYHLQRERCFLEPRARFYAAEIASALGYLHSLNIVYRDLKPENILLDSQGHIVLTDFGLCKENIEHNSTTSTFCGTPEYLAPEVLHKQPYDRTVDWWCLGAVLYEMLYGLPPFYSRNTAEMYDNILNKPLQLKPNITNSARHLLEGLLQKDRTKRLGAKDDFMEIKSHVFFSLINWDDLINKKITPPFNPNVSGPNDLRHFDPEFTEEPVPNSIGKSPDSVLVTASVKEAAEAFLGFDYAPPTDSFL
Assay: IC50 determination, biochemical kinase assay
Settings: not in the presence of VHL

Structure (SMILES) | pIC50
COc1ccc(Cl)c(S(=O)(=O)Nc2ccc(-c3nc(OC[C@H]4CNCCO4)c4c(C)n[nH]c4n3)cc2)c1 [290-R, reference compound] | 7.72
Cc1ccc(F)c(S(=O)(=O)Nc2ccc(-c3nc(OC[C@H]4CN(CCOCCOCCOCC(=O)N[C@H](C(=O)N5C[C@H](O)C[C@H]5C(=O)NCc5ccc(-c6scnc6C)cc5)C(C)(C)C)CCO4)c4cn[nH]c4n3)cc2)c1 [DAT1] | 5.80
Cc1ccc(F)c(S(=O)(=O)Nc2ccc(-c3nc(OC[C@H]4CN(CCOCCOCC(=O)N[C@H](C(=O)N5C[C@H](O)C[C@H]5C(=O)NCc5ccc(-c6scnc6C)cc5)C(C)(C)C)CCO4)c4cn[nH]c4n3)cc2)c1 [DAT5] | < 5.00
Cc1ccc(F)c(S(=O)(=O)Nc2ccc(-c3nc(OC[C@H]4CN(CCOCCOCCOCCOCC(=O)N[C@H](C(=O)N5C[C@H](O)C[C@H]5C(=O)NCc5ccc(-c6scnc6C)cc5)C(C)(C)C)CCO4)c4cn[nH]c4n3)cc2)c1 [DAT6] | < 5.00
Cc1ccc(F)c(S(=O)(=O)Nc2ccc(-c3nc(OC[C@H]4CN(CCOCCOCCOCCOCCOCC(=O)N[C@H](C(=O)N5C[C@H](O)C[C@H]5C(=O)NCc5ccc(-c6scnc6C)cc5)C(C)(C)C)CCO4)c4cn[nH]c4n3)cc2)c1 [DAT7] | < 5.00
Cc1ccc(F)c(S(=O)(=O)Nc2ccc(-c3nc(OC[C@H]4CN(CCCCCCOCCCCCCOCC(=O)N[C@H](C(=O)N5C[C@H](O)C[C@H]5C(=O)NCc5ccc(-c6scnc6C)cc5)C(C)(C)C)CCO4)c4cn[nH]c4n3)cc2)c1 [DAT10] | < 5.00
COc1ccc(Cl)c(S(=O)(=O)Nc2ccc(-c3nc(OC[C@H]4CN(CCCCCCOCCOCCOCCOCC(=O)N[C@H](C(=O)N5C[C@H](O)C[C@H]5C(=O)NCc5ccc(-c6scnc6C)cc5)C(C)(C)C)CCO4)c4c(C)n[nH]c4n3)cc2)c1 [DAT11] | 5.87
Cc1ccc(F)c(S(=O)(=O)Nc2ccc(-c3nc(OC[C@H]4CN(CCCCCCOCCOCCOCC(=O)N[C@H](C(=O)N5C[C@H](O)C[C@H]5C(=O)NCc5ccc(-c6scnc6C)cc5)C(C)(C)C)CCO4)c4cn[nH]c4n3)cc2)c1 [SGK3-PROTAC1] | 6.66
Cc1ccc(F)c(S(=O)(=O)Nc2ccc(-c3nc(OC[C@H]4CN(CCCCCCOCCOCCOCC(=O)N[C@H](C(=O)N5C[C@@H](O)C[C@H]5C(=O)NCc5ccc(-c6scnc6C)cc5)C(C)(C)C)CCO4)c4cn[nH]c4n3)cc2)c1 [cisSGK3-PROTAC1] | 5.85
